In PMC7114212 (Antiviral Research, 2006):
Read-outs that look alike come from different tables or passages of the source.

How the values were obtained:
HIV-1 (IIIB) = details: read-out: HIV-1 (CEM) EC50; cited from earlier work
FIPV strain 79-1146 = test: microbe, parasite or virus in culture; assay type: cell-based, feline infectious peritonitis virus; details: read-out: FIPV (CRFK) EC50
[1] = test system: Crandell-Reese feline kidney (CRFK) cells
CEM cells = details: cited from earlier work; for IC50: read-out: HIV-1 (CEM) IC50 (50% cytostatic concentration)
FIPV = assay type: cell-based, feline infectious peritonitis virus
[2] = mouse, in vivo, cited from earlier work

Compound | EC50 (HIV-1 (IIIB)) [µM] | EC50 (FIPV strain 79-1146; Alphacoronavirus 1, CRFK, 96 h) [µM] | EC50 (FIPV strain 79-1146) [µM] | FIPV (CRFK) CC50 [1] | SARS-CoV (Vero) CC50 (Vero cells) | HIV-1 (CEM) IC50 (50% cytostatic concentration) (CEM cells) | IC50 (CEM cells) [µM] | CC50 [1] [µM] | CC50 (Vero cells) [µM] | delay of addition after FIPV infection that keeps full antiviral activity (FIPV) | Vss ([2]; iv) [L/kg] | half-life ([2]; iv) [h] | tissue penetration [2]
CN[C@H](CC(C)C)C(=O)N[C@H]1C(=O)N[C@@H](CC(N)=O)C(=O)N[C@H]2C(=O)N[C@H]3C(=O)N[C@H](C(=O)N[C@H](C(=O)O)c4cc(O)cc(O)c4-c4cc3ccc4O)[C@H](O)c3ccc(c(Cl)c3)Oc3cc2cc(c3O[C@@H]2O[C@H](CO)[C@@H](O)[C@H](O)[C@H]2O[C@H]2C[C@](C)(N)[C@H](O)[C@H](C)O2)Oc2ccc(cc2Cl)[C@H]1O [compound 1, Vancomycin] | > 250 | > 80 | > 100 | neither toxic | neither toxic | neither toxic | > 500 |  |  |  |  |  | 
Carboxyeremomycin [compound 14] |  |  | > 80 |  |  |  |  |  |  |  |  |  | 
De-Cl-eremomycin aglycon [compound 89] | > 125 |  | > 100 |  |  |  |  | > 100 | > 100 |  |  |  | 
Eremomycin [compound 7] | > 250 |  | > 100 | neither toxic | neither toxic | neither toxic | > 500 |  |  |  |  |  | 
Eremomycin aglycon [compound 71] | 50 |  | > 80 |  |  |  | > 500 | > 80 | > 80 |  |  |  | 
Eremomycin aglycon hexapeptide [compound 84] | 115 ± 21.2 |  | > 80 |  |  |  | > 250 | > 80 | > 80 |  |  |  | 
N-Deacyl-A40926 [compound 55] | > 250 |  | > 80 | neither toxic | neither toxic | neither toxic | > 500 |  |  |  |  |  | 
Ristomycin [compound 50] | > 250 |  | > 80 | neither toxic | neither toxic | neither toxic | > 500 |  |  |  |  |  | 
Ristosaminylaglycon of ristomycin [compound 51] | > 50 |  | > 80 |  |  |  | > 100 |  |  |  |  |  | 
Teicoplanin [compound 52] |  |  | > 80 | neither toxic | neither toxic | neither toxic | > 500 |  |  | markedly less delayed |  |  | 
Vancomycin aglycon [compound 65] | 65 |  | > 80 |  |  |  | > 500 | > 80 | > 80 |  |  |  | 
Vancomycin aglycon hexapeptide [compound 69] | ≥ 125 |  | > 100 |  |  |  |  | > 100 | > 100 |  |  |  | 
adamantyl-2 amide of eremomycin [AN0900] |  |  |  |  |  |  |  |  |  |  | 26.285 | 3.08 | deep tissue penetration
demannosyl-N-deacylA40926 [compound 57] | 115 ± 21 |  | > 80 | neither toxic | neither toxic | neither toxic | > 500 |  |  |  |  |  | 
